In general, IC50 refers to the concentration that gives 50% inhibition. As usually defined, the EC50 is the concentration that produces a half-maximal response.

The text below walks through data of patent US9546157B2, “Asymmetric piperidinyl-substituted ureas as medicines” (Helsinn Healthcare SA, priority 2014, dated 2017).

The target of assay [1] is T1, GHSR1a (Homo sapiens, UniProt Q92847).
T1 construct: expressed in transfected cells; host or cells: HEK293
The experiment in a line: Calcium FLIPR assay, GHSR-1a antagonism (reduction of ghrelin response). As to conditions: HEK293/GHSR1a cells, ghrelin 10 nM. The format is cell-based. The method in brief: (§1)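 Calcium flux measured by FLIPR in GHSR1a-expressing HEK293 cells after 30-60 min dye preloading. Compound was added at t=20 sec, alone for agonism or with ghrelin (10 nM) for antagonism, and fluorescence recorded for 2 minutes. EC50 and IC50 were estimated from dose-response data.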

The target in assay [2] is T1, GHSR1a. In words: Calcium FLIPR assay, GHSR-1a agonism. The format is cell-based. Further details: Emax: unit not given here. The note with it: HEK293/GHSR1a cells. An outline of the steps:
as §1

T1 sequence (Q92847 whole entry): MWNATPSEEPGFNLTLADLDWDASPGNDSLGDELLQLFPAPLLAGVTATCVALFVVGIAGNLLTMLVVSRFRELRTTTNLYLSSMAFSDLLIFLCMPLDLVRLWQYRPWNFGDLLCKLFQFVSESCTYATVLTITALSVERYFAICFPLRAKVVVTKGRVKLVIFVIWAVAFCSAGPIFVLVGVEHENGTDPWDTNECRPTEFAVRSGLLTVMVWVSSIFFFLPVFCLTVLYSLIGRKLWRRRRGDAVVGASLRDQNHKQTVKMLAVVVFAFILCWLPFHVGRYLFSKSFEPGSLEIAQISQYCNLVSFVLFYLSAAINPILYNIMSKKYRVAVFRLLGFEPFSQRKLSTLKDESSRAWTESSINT

On to `CC(NC(=O)N(C)C1CCN(C)CC1)c1ccc(-c2cnc(N3CCN(C)CC3)cn2)c(Cl)c1Cl` (centres unmarked) [Compound H0822, 3-(1-(2,3-dichloro-4-(5-(4-methylpiperazin-1-yl)pyrazin-2-yl)phenyl)ethyl)-1-methyl-1-(1-methylpiperidin-4-yl)urea], for which the IC50 on GHSR1a [1] is 1200 nM. Moreover, the EC50 at GHSR1a [2] was more than 30000 nM.
For `CCCN(C(=O)NC(C)c1ccc(-c2cnccn2)c(Cl)c1Cl)C1CCN(C)CC1` (centres unmarked) [Compound H0827, 3-(1-(2,3-dichloro-4-(pyrazin-2-yl)phenyl)ethyl)-1-(1-methylpiperidin-4-yl)-1-propylurea] the same measures were 35 nM and more than 30000 nM.
For `CC(NC(=O)N(C)C1CCN(C)CC1)c1ccc(-c2cnc3ccccc3n2)c(Cl)c1Cl` (centres unmarked) [Compound H0828, 3-(1-(2,3-dichloro-4-(quinoxalin-2-yl)phenyl)ethyl)-1-methyl-1-(1-methylpiperidin-4-yl)urea] the same measures were 376 nM and more than 30000 nM.
For `Cc1nccnc1-c1ccc(C(C)NC(=O)N(C)C2CCN(C)CC2)c(Cl)c1Cl` (centres unmarked) [Compound H0831, 3-(1-(2,3-dichloro-4-(3-methylpyrazin-2-yl)phenyl)ethyl)-1-methyl-1-(1-methylpiperidin-4-yl)urea] the same measures were 1200 nM and more than 30000 nM.
As for `CC#Cc1ccc(C(C)NC(=O)N(C)C2CCN(C)CC2)c(Cl)c1Cl` (centres unmarked) [Compound H0832, 3-(1-(2,3-dichloro-4-(prop-1-yn-1-yl)phenyl)ethyl)-1-methyl-1-(1-methylpiperidin-4-yl)urea], the IC50 at GHSR1a [1] was 11 nM. On GHSR1a [2], the EC50 was more than 30000 nM.
As to `CC(NC(=O)N(C)C1CCN(C)CC1)c1ccc(-c2cnn(C3CC3)c2)c(Cl)c1Cl` (centres unmarked) [Compound H0842, 3-(1-(2,3-dichloro-4-(1-cyclopropyl-1H-pyrazol-4-yl)phenyl)ethyl)-1-methyl-1-(1-methylpiperidin-4-yl)urea], the IC50 on GHSR1a [1] was 64 nM. Further, at GHSR1a [2], the EC50 was 67 nM and the Emax was 1411.
For `Cc1nccnc1-c1ccc(C(C)NC(=O)N(C)[C@@H]2CCN(C)CC2(C)C)c(Cl)c1Cl` (stereo partly drawn) [Compound H0843, 3-(1-(2,3-dichloro-4-(3-methylpyrazin-2-yl)phenyl)ethyl)-1-methyl-1-((R)-1,3,3-trimethylpiperidin-4-yl)urea] the same measures were 35 nM, 51 nM and 1910.
`Cc1nccnc1-c1ccc(C(CC2CC2)NC(=O)N(C)C2CCN(C)CC2)c(Cl)c1Cl` (centres unmarked) [Compound H0844, 3-(2-cyclopropyl-1-(2,3-dichloro-4-(3-methylpyrazin-2-yl)phenyl)ethyl)-1-methyl-1-(1-methylpiperidin-4-yl)urea]: the half-maximal inhibitory concentration (IC50) at GHSR1a [1] stood at 705 nM. At GHSR1a [2], the EC50 was more than 30000 nM.
As for `CC(NC(=O)N(C)C1CCN(C)CC1)c1ccc(NC2CC2)c(Cl)c1Cl` (centres unmarked) [Compound H0846, 3-(1-(2,3-dichloro-4-(cyclopropylamino)phenyl)ethyl)-1-methyl-1-(1-methylpiperidin-4-yl)urea], at GHSR1a [1], the IC50 is 170 nM. In addition, on GHSR1a [2], the EC50 amounted to 130 nM and the Emax is 3815.
With `CC(NC(=O)N(C)C1CCN(C)CC1)c1ccc(-c2ccc(C3CC3)cn2)c(Cl)c1Cl` (centres unmarked) [Compound H0849, 3-(1-(2,3-dichloro-4-(5-cyclopropylpyridin-2-yl)phenyl)ethyl)-1-methyl-1-(1-methylpiperidin-4-yl)urea], the IC50 on GHSR1a [1] came out at 37 nM. In addition, on GHSR1a [2], the EC50 amounted to 51 nM and the Emax came to 1383.
Take `CC(NC(=O)N(C)C1CCN(C)CC1)c1ccc(-c2cnccn2)c2ccccc12` (centres unmarked) [Compound H0850, 1-methyl-1-(1-methylpiperidin-4-yl)-3-(1-(4-(pyrazin-2-yl)naphthalen-1-yl)ethyl)urea]: the IC50 at GHSR1a [1] stood at 1200 nM. The EC50 on GHSR1a [2] was more than 30000 nM.
As for `CC(NC(=O)N(C)C1CCN(C)CC1)c1ccc(-c2nc(C3CC3)no2)c(Cl)c1Cl` (centres unmarked) [Compound H0851, 3-(1-(2,3-dichloro-4-(3-cyclopropyl-1,2,4-oxadiazol-5-yl)phenyl)ethyl)-1-methyl-1-(1-methylpiperidin-4-yl)urea], at GHSR1a [1], the IC50 amounted to 11 nM. Further, at GHSR1a [2], the EC50 is 6 nM and the Emax is 3320.
As for `CC(C)C#Cc1ccc(C(C)NC(=O)N(C)C2CCN(C)CC2)c(Cl)c1Cl` (centres unmarked) [Compound H0852, 3-(1-(2,3-dichloro-4-(3-methylbut-1-yn-1-yl)phenyl)ethyl)-1-methyl-1-(1-methylpiperidin-4-yl)urea], on GHSR1a [1], the IC50 was 22 nM. Besides, at GHSR1a [2], the EC50 was 18 nM and the Emax was 1683.
Take `CC(NC(=O)C(C)N1CCN(C)CC1)c1ccc(-c2cnccn2)c(Cl)c1Cl` (centres unmarked) [Compound H0853, N-(1-(2,3-dichloro-4-(pyrazin-2-yl)phenyl)ethyl)-2-(4-methylpiperazin-1-yl)propanamide]: the IC50 at GHSR1a [1] was determined as 1500 nM. Besides, the EC50 on GHSR1a [2] is more than 30000 nM.
With `CC(NC(=O)N(C)C1CCN(C)CC1)c1ccc(-c2cnc(C3CC3)nc2)c(Cl)c1Cl` (centres unmarked) [Compound H0854, 3-(1-(2,3-dichloro-4-(2-cyclopropylpyrimidin-5-yl)phenyl)ethyl)-1-methyl-1-(1-methylpiperidin-4-yl)urea], on GHSR1a [1], the IC50 turned out to be 65 nM. For the same compound, on GHSR1a [2], the EC50 came out at 24 nM and the Emax is reported as 3246.
As to `CC(NC(=O)N(C)C1CCN(C)CC1)c1ccc(C#CC2CC2)c(Cl)c1F` (centres unmarked) [Compound H0855, 3-(1-(3-chloro-4-(cycloprropylethynyl)-2-fluorophenyl)ethyl)-1-methyl-1-(1-methylpiperidin-4-yl)urea], the IC50 at GHSR1a [1] stood at 256 nM. Further, the EC50 at GHSR1a [2] was more than 30000 nM.
Take `CC(NC(=O)N(C)C1CCN(C)CC1)c1ccc(-c2cnccn2)c(Cl)c1F` (centres unmarked) [Compound H0856, 3-(1-(3-chloro-2-fluoro-4-(pyrazin-2-yl)phenyl)ethyl)-1-methyl-1-(1-methylpiperidin-4-yl)urea]: the IC50 on GHSR1a [1] is 339 nM. For the same compound, at GHSR1a [2], the EC50 was more than 30000 nM.
For `CCC(NC(=O)N(C)C1CCN(C)C1)c1ccc(-c2cncc(F)n2)c(Cl)c1Cl` (centres unmarked) [Compound H0864, 3-(1-(2,3-dichloro-4-(6-fluoropyrazin-2-yl)phenyl)propyl)-1-methyl-1-(1-methylpyrrolidin-3-yl)urea] the same measures were 718 nM and more than 30000 nM.
As for `CN1CCC(N(C)C(=O)NC(c2ccc(-c3cnccn3)c(Cl)c2Cl)C(F)(F)F)C1` (centres unmarked) [Compound H0871, 3-(1-(2,3-dichloro-4-(pyrazin-2-yl)phenyl)-2,2,2-trifluoroethyl)-1-methyl-1-(1-methylpyrrolidin-3-yl)urea], at GHSR1a [1], the half-maximal inhibitory concentration (IC50) was 9 nM. Further, on GHSR1a [2], the EC50 is more than 30000 nM.
On to `CN1CCC(N(C)C(=O)NC(CC2CC2)c2ccc(-c3cnccn3)c(Cl)c2Cl)C1` (centres unmarked) [Compound H0874, 3-(2-cyclopropyl-1-(2,3-dichloro-4-(pyrazin-2-yl)phenyl)ethyl)-1-methyl-1-(1-methylpyrrolidin-3-yl)urea], for which, at GHSR1a [1], the concentration for half-maximal inhibition (IC50) amounted to 115 nM. Further, the half-maximal effective concentration (EC50) on GHSR1a [2] was more than 30000 nM.
For `CC(NC(=O)N(C)C1CCN(C)CC1)c1ccc(OC2CC2)c(Cl)c1Cl` (centres unmarked) [Compound H0875, 3-(1-(2,3-dichloro-4-cyclopropoxyphenyl)ethyl)-1-methyl-1-(1-methylpiperidin-4-yl)urea], the IC50 on GHSR1a [1] came out at 91 nM. Further, at GHSR1a [2], the EC50 is 50 nM and the Emax came to 3751.
